Laboratory results: patent publication US9580409B2, “Modulators of opioid receptors and methods of use thereof” (priority 2011, dated 2017)

Target: mu-opioid receptor (Homo sapiens, UniProt P35372)
Experiment: biochemical
Settings: […]; class symbol combines EC50 and efficacy; read-out: GTP Activity

Chain of mu-opioid receptor (P35372 whole entry, species assumed): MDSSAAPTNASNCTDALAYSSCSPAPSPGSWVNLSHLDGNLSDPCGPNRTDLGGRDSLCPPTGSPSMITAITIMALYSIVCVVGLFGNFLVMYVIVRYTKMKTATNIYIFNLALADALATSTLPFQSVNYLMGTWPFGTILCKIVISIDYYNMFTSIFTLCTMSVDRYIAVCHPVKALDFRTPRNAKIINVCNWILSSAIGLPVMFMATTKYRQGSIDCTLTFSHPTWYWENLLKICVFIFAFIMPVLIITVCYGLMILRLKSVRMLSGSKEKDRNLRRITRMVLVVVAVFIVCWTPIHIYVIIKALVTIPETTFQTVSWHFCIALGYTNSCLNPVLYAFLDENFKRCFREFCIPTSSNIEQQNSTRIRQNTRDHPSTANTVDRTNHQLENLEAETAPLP

| Structure (SMILES) | EC50 [nM] |
| --- | --- |
| COc1cc(OC)cc(N2C(N)=C(c3nc4ccccc4[nH]3)C(=O)C2(C)CCO)c1 (stereo not drawn) [compound 216] | 100 to 1000 |
| COc1cc(OC)cc(N2C(N)=C(c3nc4ccccc4[nH]3)C(=O)[C@H]2CCO)c1 [compound 241] | 100 to 1000 |
| COc1cc(OC)cc(N2C(N)=C(c3nc4ccccc4[nH]3)C(=O)C2CCN2CCOCC2)c1 (stereo not drawn) [compound 234] | 100 to 1000 |
| COc1cc(OC)cc(N2C(N)=C(c3nc4ccccc4[nH]3)C(=O)C23CCCN(C(C)=O)C3)c1 (stereo not drawn) [compound 294] | 1000 to 10000 |
| COc1cc(OC)cc(N2C(N)=C(c3nc4ccccc4[nH]3)C(=O)[C@@]2(C)CCNC(C)=O)c1 [compound 302] | 100 to 1000 |
| CNC1=C(c2nc3ccccc3[nH]2)C(=O)[C@@](C)(CCO)N1c1cc(OC)cc(OC)c1 [compound 261] | 100 to 1000 |
| CNC1=C(c2nc3ccccc3[nH]2)C(=O)C(C(C)=O)N1c1cc(OC)cc(OC)c1 (stereo not drawn) [compound 279] | < 100 |
| CNC1=C(c2nc3ccccc3[nH]2)C(=O)[C@](C)(CO)N1c1cc(OC)cc(OC)c1 [compound 212] | < 100 |
| COc1cc(OC)cc(N2C(N)=C(c3nc4ccccc4[nH]3)C(=O)C2CCN(C)C(C)=O)c1 (stereo not drawn) [compound 256] | 100 to 1000 |
| CNC1=C(c2nc3ccccc3[nH]2)C(=O)[C@@](C)(CNC(=O)COC)N1c1cc(OC)cc(OC)c1 [compound 318] | < 100 |
| COc1cc(OC)cc(N2C(N)=C(c3nc4ccccc4[nH]3)C(=O)C23CCCNC3)c1 (stereo not drawn) [compound 293] | 1000 to 10000 |
| CNC1=C(c2nc3ccccc3[nH]2)C(=O)[C@H](CNC(=O)COC)N1c1cc(OC)cc(OC)c1 [compound 315] | < 100 |
| CNC1=C(c2nc3ccccc3[nH]2)C(=O)[C@](C)(CCO)N1c1cc(OC)cc(OC)c1 [compound 262] | < 100 |
| CNC(=O)CC1C(=O)C(c2nc3ccccc3[nH]2)=C(N)N1c1cc(OC)cc(OC)c1 (stereo not drawn) [compound 246] | 1000 to 10000 |
| CNC1=C(c2nc3ccccc3[nH]2)C(=O)[C@](C)(CNC(=O)COC)N1c1cc(OC)cc(OC)c1 [compound 317] | 100 to 1000 |
| CNC1=C(c2nc3ccccc3[nH]2)C(=O)C(C)(c2ccco2)N1c1cc(OC)cc(OC)c1 (stereo not drawn) [compound 278] | 100 to 1000 |
| CNC1=C(c2nc3ccccc3[nH]2)C(=O)[C@@](C)(CCNC(C)=O)N1c1cc(OC)cc(OC)c1 [compound 304] | < 100 |
| COc1cc(OC)cc(N2C(N)=C(c3nc4ccccc4[nH]3)C(=O)C23CC(=O)C3)c1 [compound 207] | 100 to 1000 |

| Structure (SMILES) | EC50 [nM] |
| --- | --- |
| COc1cc(OC)cc(N2C(N)=C(c3nc4ccccc4[nH]3)C(=O)C2CCN2CCCC2)c1 (stereo not drawn) [compound 237] | 1000 to 10000 |
| COCC1(C)C(=O)C(c2nc3ccccc3[nH]2)=C(N)N1c1cc(OC)cc(OC)c1 (stereo not drawn) [compound 296] | 100 to 1000 |
| CNC1=C(c2nc3ccccc3[nH]2)C(=O)[C@](C)(CCOC)N1c1cc(OC)cc(OC)c1 [compound 299] | 100 to 1000 |
| CNC1=C(c2nc3ccccc3[nH]2)C(=O)C(CNC(=O)COC)N1c1cc(OC)cc(OC)c1 (stereo not drawn) [compound 289] | < 100 |
| COc1cc(OC)cc(N2C(N)=C(c3nc4ccccc4[nH]3)C(=O)C2CCOc2ccccc2)c1 (stereo not drawn) [compound 231] | 1000 to 10000 |
| COc1cc(OC)cc(N2C(N)=C(c3nc4ccccc4[nH]3)C(=O)C23CN(C(C)=O)C3)c1 [compound 248] | 100 to 1000 |
| COc1cc(OC)cc(N2C(N)=C(c3nc4ccccc4[nH]3)C(=O)C2CCCCO)c1 (stereo not drawn) [compound 223] | 100 to 1000 |
| COc1cc(OC)cc(N2C(N)=C(c3nc4ccccc4[nH]3)C(=O)C2CCCCN)c1 (stereo not drawn) [compound 204] | 100 to 1000 |
| COc1cc(OC)cc(N2C(N)=C(c3nc4ccccc4[nH]3)C(=O)C23CCOCC3)c1 [compound 224] | 100 to 1000 |
| CNC1=C(c2nc3ccccc3[nH]2)C(=O)C(CO)(CO)N1c1cc(OC)cc(OC)c1 [compound 263] | 100 to 1000 |
| CNc1c(-c2nc3ccccc3[nH]2)c(=O)n(CCO)n1-c1cc(OC)cc(OC)c1 [compound 265] | 100 to 1000 |
| CNC1=C(c2nc3ccccc3[nH]2)C(=O)C(C)(CO)N1c1cc(OC)cc(OC)c1 (stereo not drawn) [compound 201] | < 100 |
| CNC1=C(c2nc3ccccc3[nH]2)C(=O)[C@@](C)(CCOC)N1c1cc(OC)cc(OC)c1 [compound 300] | < 100 |
| CCOC(=O)C1CC2(CC1=O)C(=O)C(c1nc3ccccc3[nH]1)=C(N)N2c1cc(OC)cc(OC)c1 (stereo not drawn) [compound 313] | 1000 to 10000 |
| CNc1c(-c2nc3ccccc3[nH]2)c(=O)n(CCNC(C)=O)n1-c1cc(OC)cc(OC)c1 [compound 271] | 100 to 1000 |
| CNC1=C(c2nc3ccccc3[nH]2)C(=O)C(C)(CNC(=O)COC)N1c1cc(OC)cc(OC)c1 (stereo not drawn) [compound 283] | < 100 |
| COc1cc(OC)cc(N2C(N)=C(c3nc4ccccc4[nH]3)C(=O)C2CCn2ccnc2)c1 (stereo not drawn) [compound 239] | 100 to 1000 |
| [2H]C1CC2(CC1=O)C(=O)C(c1nc3ccccc3[nH]1)=C(NC)N2c1cc(OC)cc(OC)c1 (stereo not drawn) [compound 314] | < 100 |

Same assay, conditions: class symbols; read-out: GTP Activity

| Structure (SMILES) | EC50 [nM] |
| --- | --- |
| CCC1(O)C(=O)C(c2nc3ccccc3[nH]2)=C(N)N1c1cc(OC)cc(OC)c1 (stereo not drawn) [compound 113] | 100 to 1000 |
| CC[C@@H]1C(=O)C(c2nc3ccccc3[nH]2)=C(N)N1c1cc(OC)cc(OC)c1 [compound 97] | 1000 to 10000 |
| COc1cc(OC)cc(-n2nc(N)c(-c3nc4ccccc4[nH]3)c2N)c1 [compound 66] | 100 to 1000 |
| COc1cc(OC)cc(N2CC(=O)C(c3nc4cc(OC)ccc4[nH]3)=C2N)c1 [compound 7] | 1000 to 10000 |
| COc1cc(OC)cc(N2C(N)=C(c3nc4ccccc4[nH]3)C(=O)C2CO)c1 (stereo not drawn) [compound 67] | 1000 to 10000 |
| CNC1=C(c2nc3ccccc3[nH]2)C(=O)C2(CN(C)C2)N1c1cc(OC)cc(OC)c1 [compound 193] | 100 to 1000 |
| CC(C)(C)c1ccccc1N1CC(=O)C(c2nc3ccccc3[nH]2)=C1N [compound 48] | 1000 to 10000 |
| COc1cc(OC)cc(N2C(N)=C(c3nc4ccccc4[nH]3)C(=O)C2CN)c1 (stereo not drawn) [compound 70] | 100 to 1000 |
| COCCNC1=C(c2nc3ccccc3[nH]2)C(=O)C(C)(C)N1c1cc(OC)cc(OC)c1 [compound 91] | 1000 to 10000 |
| Cc1ccc(N2C(N)=C(c3nc4ccccc4[nH]3)C(=O)C2(C)C)c(C)c1 [compound 101] | 100 to 1000 |
| COc1cc(OC)cc(N2C(N)=C(c3nc4ccccc4[nH]3)C(=O)C23CCC3)c1 [compound 108] | < 100 |
| CNC1=C(c2nc3ccccc3[nH]2)C(=O)C(C)(O)N1c1cc(OC)cc(OC)c1 (stereo not drawn) [compound 114] | 100 to 1000 |
| Cc1ccc(C)c(N2CC(=O)C(c3nc4c(C)cccc4[nH]3)=C2N)c1 [compound 17] | 1000 to 10000 |
| CCOc1cc(OCC)cc(N2C(N)=C(c3nc4ccccc4[nH]3)C(=O)C2(C)C)c1 [compound 158] | 1000 to 10000 |
| CNC1=C(c2nc3ccccc3[nH]2)C(=O)C(C)(C)N1c1cc(C)cc(C)c1 [compound 105] | 100 to 1000 |
| CCC1(C)C(=O)C(c2nc3ccccc3[nH]2)=C(N)N1c1cc(OC)cc(OC)c1 (stereo not drawn) [compound 53] | 100 to 1000 |
| Cc1cc(C)cc(N2CC(=O)C(c3nc4c(C)cccc4[nH]3)=C2N)c1 [compound 14] | 1000 to 10000 |
| NC1=C(c2nc3ccccc3[nH]2)C(=O)CN1c1ccccc1Oc1ccccc1 [compound 46] | 1000 to 10000 |
| CCC1(O)C(=O)C(c2nc3ccccc3[nH]2)=C(NC)N1c1cc(OC)cc(OC)c1 (stereo not drawn) [compound 115] | 100 to 1000 |
| COc1cc(OC)cc(N2C(N)=C(c3nc4ccccc4[nH]3)C(=O)[C@@H]2c2ccccc2)c1 [compound 106] | 1000 to 10000 |
| COc1cc(OC)cc(N2C(N)=C(c3nc4ccccc4[nH]3)C(=O)C23CNC3)c1 [compound 189] | 1000 to 10000 |

| Structure (SMILES) | EC50 [nM] |
| --- | --- |
| COc1cc(OC)cc(-n2nc(Nc3ccccc3)c(-c3nc4ccccc4[nH]3)c2O)c1 [compound 197] | 1000 to 10000 |
| COc1cc(OC)cc(-n2c(N)c(-c3nc4ccccc4[nH]3)c(=O)n2C)c1 [compound 86] | 100 to 1000 |
| COCC1C(=O)C(c2nc3ccccc3[nH]2)=C(N)N1c1cc(OC)cc(OC)c1 (stereo not drawn) [compound 68] | 100 to 1000 |
| CCc1cc(CC)cc(N2C(N)=C(c3nc4ccccc4[nH]3)C(=O)C2(C)C)c1 [compound 156] | 100 to 1000 |
| CN(C)c1cccc(N2C(N)=C(c3nc4ccccc4[nH]3)C(=O)C2(C)C)c1 [compound 164] | 1000 to 10000 |
| CC(C)(C)Oc1ccccc1N1CC(=O)C(c2nc3ccccc3[nH]2)=C1N [compound 45] | 1000 to 10000 |
| COc1cc(OC)cc(-n2c(=O)c(-c3nc4ccccc4[nH]3)c(N)n2C(C)C)c1 [compound 74] | 1000 to 10000 |
| Cc1ccc(C)c(N2CC(=O)C(c3nc4cc(C)ccc4[nH]3)=C2N)c1 [compound 15] | 1000 to 10000 |
| CCNC1=C(c2nc3ccccc3[nH]2)C(=O)[C@@H](CC)N1c1cc(OC)cc(OC)c1 [compound 186] | 100 to 1000 |
| [2H]C([2H])([2H])Oc1cc(OC([2H])([2H])[2H])cc(N2C(NC)=C(c3nc4ccccc4[nH]3)C(=O)C2(C)C)c1 [compound 175] | < 100 |
| COc1cc(OC)cc(N2C(N3CCCC3)=C(c3nc4ccccc4[nH]3)C(=O)C2(C)C)c1 [compound 144] | 1000 to 10000 |
| COc1cc(OC)cc(N2C(N)=C(c3nc4ccccc4[nH]3)C(=O)C2(C)CO)c1 (stereo not drawn) [compound 133] | 100 to 1000 |
| COc1cc(OC)cc(N2CC(=O)C(c3cn4ccccc4n3)=C2N)c1 [compound 41] | 1000 to 10000 |
| COc1cc(OC)cc(N2CC(=O)C(c3nc4cc(C)ccc4[nH]3)=C2N)c1 [compound 6] | 1000 to 10000 |
| CNC1=C(c2nc3ccccc3[nH]2)C(=O)C(C)(C)N1c1cc(O)cc(OC)c1 [compound 129] | 100 to 1000 |
| C=C1C(=O)C(c2nc3ccccc3[nH]2)=C(N)N1c1cc(OC)cc(OC)c1 [compound 177] | 100 to 1000 |
| COc1cc(OC)cc(N2CC(=O)C(c3nc4c(C)cccc4[nH]3)=C2N)c1 [compound 5] | 1000 to 10000 |
| CNC1=C(c2nc3ccccc3[nH]2)C(=O)C2(COC2)N1c1cc(OC)cc(OC)c1 [compound 194] | < 100 |
| CC[C@]1(C)C(=O)C(c2nc3ccccc3[nH]2)=C(N)N1c1cc(OC)cc(OC)c1 [compound 84] | 100 to 1000 |
| CNC1=C(c2nc3ccccc3[nH]2)C(=O)C(C)(C)N1c1ccc(C)cc1C [compound 104] | 1000 to 10000 |
| CNC1=C(c2nc3ccccc3[nH]2)C(=O)C(C)(OC)N1c1cc(OC)cc(OC)c1 (stereo not drawn) [compound 120] | 100 to 1000 |
